Experimental findings from publication PMC4608799, “Structural and Functional Analysis of Murine Polyomavirus Capsid Proteins Establish the Determinants of Ligand Recognition and Pathogenicity” (PLoS Pathogens, 2015) are described below.

SMILES strings stand for the structures.

One assay deals with T1, RA VP1 (Mouse polyomavirus (strain p16 small-plaque), UniProt P49302).
T1 construct: residues 33-316, homopentamer; N-terminal His-tag cut by thrombin leaving GSHM; pET15b, E. coli BL21
Kind of assay: concentration-dependent crystal soaking, electron density quantified. Type of assay: binding. The settings on record: 1.5 M ammonium sulfate (competes with the Neu5Ac carboxylate), 20 C crystals, 30 min soak.

A further assay concerns the target T2, PTA VP1 (Alphapolyomavirus muris, UniProt A0A247D727).
T2 construct: residues 33-316, homopentamer; N-terminal His-tag cut by thrombin leaving GSHM; pET15b, E. coli BL21
In words: X-ray crystal structure of complex. Particulars: receptor-binding pocket.

Regarding `CC(=O)N[C@H]1[C@H](O[C@H]2[C@@H](O)[C@@H](CO)O[C@@H](O[C@H]3[C@H](O)[C@@H](O)C(O)O[C@@H]3CO)[C@@H]2O)O[C@H](CO[C@]2(C(=O)O)C[C@H](O)[C@@H](NC(C)=O)[C@H]([C@H](O)[C@H](O)CO)O2)[C@@H](O)[C@@H]1O[C@@H]1O[C@H](CO)[C@H](O)[C@H](O[C@]2(C(=O)O)C[C@H](O)[C@@H](NC(C)=O)[C@H]([C@H](O)[C@H](O)CO)O2)[C@H]1O` (some centres unmarked) [DSLNT], at RA VP1, the “concentration-dependent crystal soaking, electron density quantified” value is “Electron density of GT1a, GD1a, and DSLNT in RA VP1”.
Turning to `CC(=O)N[C@H]1[C@H]([C@H](O)[C@H](O)CO)O[C@@](O[C@H](CO)[C@@H](O)[C@@H]2O[C@@](O[C@H]3[C@@H](O)[C@@H](CO)O[C@@H](O[C@H]4[C@H](O)[C@@H](O)C(O)O[C@@H]4CO)[C@@H]3O)(C(=O)O)C[C@H](O)[C@H]2NC(C)=O)(C(=O)O)C[C@@H]1O` (some centres unmarked) [GD3, glycan portion of GD3], the “X-ray crystal structure of complex” value on PTA VP1 is “the crystal structure of PTA with the glycan portion of GD3 shows an identical binding mechanism”.
